According to US12031897B2, “Target-locking single-molecule nanoscopy” (Memorial Sloan Kettering Cancer Center, priority 2019, dated 2024):

System: Pol II (FLAG-SNAP-Rpb1) at the CMV mini-gene
Test: ChIP-qPCR of Pol II at the CMV mini-gene after flavopiridol treatment (U2-OS cells)
Format: cell-based, human
Conditions: 10 μM flavopiridol, by the 5-minute time point; clone 5 cells
Experimental: ChIP-qPCR analysis of Pol II after flavopiridol treatment. U2-OS cells. Fast chromatin immuno-precipitation was performed as described. Confluent 15 cm dishes (20×10^6 cells) were treated with 10 μM Flavopiridol or DMSO for the indicated times. Methanol-free formaldehyde (Thermo Fisher) was then directly added to the media to 1% v/v final concentration, and dishes were immediately placed on a rotator/shaker for 10 minutes at RT. Formaldehyde was quenched with 125 mM glycine for 5 min at RT, and cells were scraped and collected with centrifugation (2,000 g, 5 min at 4° C.) and washed twice with cold PBS. Cells were lysed in buffer IP (150 mM NaCl, 50 mM Tris-HCl pH 7.5, 5 mM EDTA, 0.5% v/v NP-40, 1.0% v/v Triton X-100) containing protease inhibitors, centrifuged (12,000 g, 1 min at 4° C.), and after one wash, the pellet was resuspended in buffer IP+protesase inhibitors. Volume equivalent to 4×10^6 cells was sonicated to shear the chromatin (Bioruptor indirect sonicator), and cleared using centrifugation (12,000 g, 10 min at 4° C.). […] Eluted chromatin was analyzed with qPCR, using primer pairs specific for different mini-gene regions (FIGS. 13I, 13J).

SMILES: CN1CC[C@H](c2c(O)cc(O)c3c(=O)cc(-c4ccccc4Cl)oc23)[C@H](O)C1 [flavopiridol]
- Pol II ChIP signal at mini-gene body and terminator regions: near-complete loss
